Measured values: ChEMBL document CHEMBL1201862, “PubChem BioAssay data set” (2004)
Active and inactive are the calls of the source.

What was measured:
Cytochrome P450 2D6 = Cytochrome P450 2D6 (Homo sapiens, UniProt P10635);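 further: CYP2D6 member of a cytochrome P450 panel assay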
[1] = inhibitors of firefly luciferase expression or activity, dose response, H4 neuroglioma cells, luminescence (AID 1990); assay type: functional, cell-based
[2] = Luminescence Cell-Based Dose Response HTS to Identify Inhibitors of 5'UTR Stem-Loop Driven Prion Protein mRNA Translation in H4 Neuroglioblastoma Cells. [Related pubchem assays: 1827 (Project Summary), 1813 (Primary HTS)]; assay type: functional
[3] = inhibitors of SNCA 5'UTR-driven reporter translation, confirmation, H4 neuroglioma cells, luminescence (AID 1988); assay type: functional, cell-based
Cytochrome P450 3A4 = Cytochrome P450 3A4 (Homo sapiens, UniProt P08684);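 further: CYP3A4 tested as one member of a cytochrome P450 panel screen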
[4] = test system: Streptococcus sp. 'group A'; test: growth inhibition of control SK(-) GAS strain, dose response, counter-screen for streptokinase expression inhibitor project, luminescence, kanamycin, BacTiterGlo, confirmation (AID 1900); assay type: functional, organism-based
Streptokinase A = biological target: T1, Streptokinase A (Streptococcus pyogenes serotype M1, UniProt P10520); test: S. pyogenes streptokinase expression inhibitors, potency, dose response, plasminogen activation absorbance, OD405 (AID 1914); assay type: functional, Streptococcus pyogenes M1 GAS;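 further: secreted streptokinase activity via plasminogen activation per viability signal from cell pellet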
T1 sequence (P10520 whole entry): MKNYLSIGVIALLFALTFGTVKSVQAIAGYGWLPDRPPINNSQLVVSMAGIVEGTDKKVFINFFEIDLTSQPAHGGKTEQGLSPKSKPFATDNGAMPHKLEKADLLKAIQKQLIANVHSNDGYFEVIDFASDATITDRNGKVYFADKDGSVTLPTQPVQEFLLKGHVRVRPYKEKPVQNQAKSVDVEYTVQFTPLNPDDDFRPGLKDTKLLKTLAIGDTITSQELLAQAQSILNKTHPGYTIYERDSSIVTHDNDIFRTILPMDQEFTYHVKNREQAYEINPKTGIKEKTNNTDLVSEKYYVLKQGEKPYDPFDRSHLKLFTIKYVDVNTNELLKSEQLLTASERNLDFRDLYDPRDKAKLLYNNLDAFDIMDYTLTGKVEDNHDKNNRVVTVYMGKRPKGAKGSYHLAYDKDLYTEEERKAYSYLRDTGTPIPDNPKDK

Streptococcus = test: Group A Streptococcus viability loss, dose response, counter-screen for streptokinase expression inhibitor project, luminescence, BacTiterGlo (AID 1915); assay type: functional, organism-based; conditions: read-out: EC50;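 further: potency for reduction of bacterial viability or growth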
[5] = Luminescence Cell-Based Dose Retest to Confirm Inhibitors of Cancer Stem Cells. [Related pubchem assays (depositor defined):AID2717, AID2721]; assay type: functional; conditions: Homo sapiens
Cytochrome P450 1A2 = biological target: T2, Cytochrome P450 1A2 (Homo sapiens, UniProt P05177);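 further: PubChem cytochrome P450 panel assay, CYP1A2 panel member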
T2 sequence (P05177 whole entry): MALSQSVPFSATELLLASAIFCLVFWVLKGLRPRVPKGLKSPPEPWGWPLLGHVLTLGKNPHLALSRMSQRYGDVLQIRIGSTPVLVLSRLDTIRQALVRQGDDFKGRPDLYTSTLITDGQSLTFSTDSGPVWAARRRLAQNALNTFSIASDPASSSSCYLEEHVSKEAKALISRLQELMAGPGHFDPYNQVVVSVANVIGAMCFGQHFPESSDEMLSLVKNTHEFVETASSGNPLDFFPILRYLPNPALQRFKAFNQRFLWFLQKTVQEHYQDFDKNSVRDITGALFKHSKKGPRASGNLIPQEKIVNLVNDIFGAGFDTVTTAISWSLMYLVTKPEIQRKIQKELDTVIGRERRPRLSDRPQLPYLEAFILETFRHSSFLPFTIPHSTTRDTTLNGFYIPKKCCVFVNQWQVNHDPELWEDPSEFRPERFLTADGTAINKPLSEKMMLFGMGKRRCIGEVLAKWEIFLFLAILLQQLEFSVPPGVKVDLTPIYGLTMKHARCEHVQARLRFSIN

[6] = biological target: FAD-linked sulfhydryl oxidase ALR (Homo sapiens, UniProt P55789); test: inhibitors of human ALR sulfhydryl oxidase, dose response, biochemical, H2O2 detection, luminescence, cherry-pick (AID 493248)
Cytochrome P450 2C19 = Cytochrome P450 2C19 (Homo sapiens, UniProt P33261); test: Cytochrome panel assay with activity outcomes. Panel member name: p450-cyp2c19 Compounds with AC50 equal or less than 10 uM are considered active; assay type: functional; conditions: read-out: AC50
Sequence of Cytochrome P450 2C19 (P33261 whole entry): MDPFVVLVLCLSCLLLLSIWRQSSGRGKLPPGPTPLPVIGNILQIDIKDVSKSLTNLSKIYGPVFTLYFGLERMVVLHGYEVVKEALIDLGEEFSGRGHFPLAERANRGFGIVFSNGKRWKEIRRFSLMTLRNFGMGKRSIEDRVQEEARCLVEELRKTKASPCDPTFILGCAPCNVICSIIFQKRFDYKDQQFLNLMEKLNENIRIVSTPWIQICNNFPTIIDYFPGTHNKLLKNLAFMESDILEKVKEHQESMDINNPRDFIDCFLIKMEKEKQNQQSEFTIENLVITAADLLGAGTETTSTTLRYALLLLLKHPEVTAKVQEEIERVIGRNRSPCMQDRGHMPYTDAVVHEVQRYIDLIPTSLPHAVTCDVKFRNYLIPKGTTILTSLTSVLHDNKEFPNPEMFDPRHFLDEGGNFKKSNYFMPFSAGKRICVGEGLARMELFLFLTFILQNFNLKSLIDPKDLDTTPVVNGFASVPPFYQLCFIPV

Sequence of Cytochrome P450 2D6 (P10635 whole entry): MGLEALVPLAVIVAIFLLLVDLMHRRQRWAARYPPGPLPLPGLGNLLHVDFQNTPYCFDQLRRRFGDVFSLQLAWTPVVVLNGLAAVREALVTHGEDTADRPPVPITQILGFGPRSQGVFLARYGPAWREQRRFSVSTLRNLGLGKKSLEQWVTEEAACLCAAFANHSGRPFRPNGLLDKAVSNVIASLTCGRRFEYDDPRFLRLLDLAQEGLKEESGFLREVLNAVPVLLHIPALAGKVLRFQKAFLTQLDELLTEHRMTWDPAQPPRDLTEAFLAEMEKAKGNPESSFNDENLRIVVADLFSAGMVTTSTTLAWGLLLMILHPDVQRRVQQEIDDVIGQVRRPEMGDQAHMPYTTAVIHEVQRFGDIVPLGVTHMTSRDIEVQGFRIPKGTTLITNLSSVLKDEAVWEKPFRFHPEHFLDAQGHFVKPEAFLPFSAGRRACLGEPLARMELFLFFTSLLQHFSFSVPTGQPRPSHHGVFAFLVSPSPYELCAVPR
Sequence of FAD-linked sulfhydryl oxidase ALR (P55789 whole entry): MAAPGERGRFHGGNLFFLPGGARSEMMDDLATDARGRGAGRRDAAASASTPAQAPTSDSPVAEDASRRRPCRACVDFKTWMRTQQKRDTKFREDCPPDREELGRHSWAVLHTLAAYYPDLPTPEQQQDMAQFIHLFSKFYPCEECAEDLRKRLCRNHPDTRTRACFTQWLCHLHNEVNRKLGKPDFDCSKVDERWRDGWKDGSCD
Sequence of Cytochrome P450 3A4 (P08684 whole entry): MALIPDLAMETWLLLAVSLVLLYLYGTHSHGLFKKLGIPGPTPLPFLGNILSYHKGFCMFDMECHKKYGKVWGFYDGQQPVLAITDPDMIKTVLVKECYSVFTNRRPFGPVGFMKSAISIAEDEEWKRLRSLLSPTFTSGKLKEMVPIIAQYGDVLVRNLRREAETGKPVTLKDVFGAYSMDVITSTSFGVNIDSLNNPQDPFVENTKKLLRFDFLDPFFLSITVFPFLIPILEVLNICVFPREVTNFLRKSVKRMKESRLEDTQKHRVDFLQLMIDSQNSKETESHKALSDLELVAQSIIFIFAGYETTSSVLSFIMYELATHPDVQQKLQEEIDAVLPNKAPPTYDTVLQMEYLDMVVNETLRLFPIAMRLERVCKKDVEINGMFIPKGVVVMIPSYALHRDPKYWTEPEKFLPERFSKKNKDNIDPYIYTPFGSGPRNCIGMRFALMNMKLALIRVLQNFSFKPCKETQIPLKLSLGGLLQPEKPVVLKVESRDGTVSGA

## CN1CCN(c2ncc3nc(-c4ccccc4)c(=O)n(CCc4ccccc4)c3n2)CC1
Cytochrome P450 2D6
  AC50: 39.8 µM (inconclusive)

## COc1ccc(NC(=O)CNC(=O)Cn2c(C)cc3ccccc3c2=O)c(OC)c1
[1]
  EC50: > 120 µM (not active)
[2]
  EC50: > 120 µM (not active)
[3]
  EC50: > 120 µM (not active)

## C[C@]1(CC(=O)O)O[C@H]2CCCCC[C@H]2O1.NCc1ccccc1
Cytochrome P450 2D6
  AC50: 3.16 µM (inconclusive)
Cytochrome P450 3A4
  AC50: 251 nM (inconclusive)

## Oc1nc(CN2CC=C(c3ccccc3)CC2)nc2scc(-c3ccccc3)c12
[4]
  EC50: 7.76 µM (active)
Streptokinase A
  EC50: > 150 µM (not active)
Streptococcus
  EC50: 50.3 µM (active)
[5]
  AC50: 2.56 µM (active)

## O=C(NCCN1CCOCC1)c1csc2c1CCCCC2
Cytochrome P450 2D6
  AC50: 17.8 µM (inconclusive)
Cytochrome P450 1A2
  AC50: 20 µM (inconclusive)

## CCS(=O)(=O)c1ccc2oc(Nc3cc(C)cc(C)c3)nc2c1
Cytochrome P450 2D6
  AC50: 25.1 µM (inconclusive)
Cytochrome P450 3A4
  AC50: 28200 nM (inconclusive)

## COC(=O)c1cccc(NC(=O)NC(=O)c2ccccc2Cl)c1
[1]
  EC50: 2 µM (active)
[2]
  EC50: 2.84 µM (active)
[3]
  EC50: 7.75 µM (active)

## COC(=O)c1c(NC(=O)COc2ccc(Cl)cc2Cl)sc2c1CC(C)(C)NC2(C)C
[1]
  EC50: 8.93 µM (active)
[2]
  EC50: > 120 µM (not active)
[3]
  EC50: 9.53 µM (active)
[5]
  AC50: 5.58 µM (active)

## Nc1ccc2nc(NC(=O)C3CCCCC3)sc2c1
[6]
  AC50: 0.957 µM (active)

## COc1ccc(OC)c(C(=O)N2CCC(n3nccc3NC(=O)CC(C)C)CC2)c1
[1]
  EC50: > 120 µM (not active)
[2]
  EC50: > 120 µM (not active)
[3]
  EC50: > 120 µM (not active)

## CC(NC(=O)C(=O)N1CCCCC1)C(c1cccs1)N1CCN(c2ccc(F)cc2)CC1 (stereo not given)
[6]
  AC50: 1.44 µM (active)

## Cc1ccccc1NS(=O)(=O)c1ccc2ncc(C(=O)NCCCN3CCOCC3)c(O)c2c1
Cytochrome P450 2C19
  AC50: 25.1 µM (inconclusive)
Cytochrome P450 2D6
  AC50: 20 µM (inconclusive)
Cytochrome P450 1A2
  AC50: 39.8 µM (inconclusive)

## c1cc(CN2CCCC3(CCNCC3)C2)ccn1
Cytochrome P450 2C19
  AC50: 25.1 µM (inconclusive)
Cytochrome P450 2D6
  AC50: 25.1 µM (inconclusive)

## O=C(C1CCC(=O)N1Cc1ccccc1Cl)N1CCN(c2cccc(Cl)c2)CC1 (stereo not given)
Cytochrome P450 2D6
  AC50: 14.1 µM (inconclusive)
Cytochrome P450 3A4
  AC50: 35.5 nM (inconclusive)

## CC(=O)Nc1ccc(S(=O)(=O)N(Cc2cc3ccc(C)cc3nc2O)CC2CCCO2)cc1 (stereo not given)
[1]
  EC50: 16.8 µM (active)
[2]
  EC50: 60.6 µM (active)
[3]
  EC50: 11.8 µM (active)

## Cc1[nH]c2ccc(C(=O)N3CCCCC3)cc2c1C
[6]
  AC50: 2.77 µM (active)

## CC(=O)N1CCC(=NNC(=O)c2cccs2)CC1
[6]
  AC50: 13.5 µM (active)

## CCN(Cc1ccncc1)C(=O)c1cc(Br)cc(Br)c1O
[6]
  AC50: 1.25 µM (active)

## COc1ccc2nc(S)[nH]c2c1
[6]
  AC50: 0.581 µM (active)
